In one series the test system is Leishmania major. The series can be described thus: Antileishmanial activity against Leishmania major (MHOM/IL/80/Friedlin) promastigotes assessed as inhibition of parasite growth incubated for 72 hrs by MTT assay. The class given is functional, organism-based. For orientation: Formazan colour is commonly taken as a measure of viable cells.
The test system of series [1] is Quadruplex DNA. The series can be described thus: Binding affinity to G-quadruplex telomeric DNA F21T (5'-duplex GGG TTAGGG TTAGGG TTAGGG-3') (unknown origin) assessed as stabilization by measuring change in melting temperature at 10 uM in potassium buffer by FRET melting assay. The series is classed as nucleic-acid assay.
Series [2] in a line: Selectivity index, ratio of IC50 for cytotoxicity against human MRC5 cells to IC50 for antitrypanosomal activity against Trypanosoma brucei bloodstream form. The class given is toxicity, cell-based. The note with it: for selectivity ratio: MRC5 cells versus Trypanosoma brucei bloodstream form, read-out: Ratio IC50.
The test system of the next series is Trypanosoma brucei. Put plainly: Antitrypanosomal activity against Trypanosoma brucei bloodstream form assessed as inhibition of parasite growth incubated for 72 hrs by alamar blue assay. The class given is functional, organism-based.
Series [3] has as its system Quadruplex DNA. The series can be described thus: Binding affinity to G-quadruplex telomeric DNA FMycT (5'-duplex GGG TTAGGG TTAGGG TTAGGG-3') (unknown origin) assessed as stabilization by measuring change in melting temperature at 10 uM in potassium buffer by FRET melting assay. The series is classed as nucleic-acid assay.
Series [4] relates to Quadruplex DNA. The series can be described thus: Binding affinity to G-quadruplex telomeric DNA F21T (5'-duplex GGG TTAGGG TTAGGG TTAGGG-3') (unknown origin) assessed as stabilization by measuring change in melting temperature at 10 uM in sodium buffer by FRET melting assay. The class given is nucleic-acid assay.
A further series concerns HeLa. The series can be described thus: Cytotoxicity against human HeLa cells assessed as inhibition of cell proliferation incubated for 72 hrs by alamar blue assay. The series is classed as functional, cell-based.
A further series relates to MRC5. The series can be described thus: (§1) Cytotoxicity against human MRC5 cells assessed as inhibition of cell proliferation incubated for 72 hrs by alamar blue assay. The class given is toxicity, cell-based. The note with it: mrc5.
Series [5] is described as follows: as §1. The class given is toxicity, cell-based. The note with it: human, MRC5 cells.
The nature of series [6]: Binding affinity to hairpin duplex DNA F10T (unknown origin) assessed as stabilization by measuring change in melting temperature at 10 uM in potassium buffer by FRET melting assay.
The nature of series [7]: Selectivity index, ratio of IC50 for cytotoxicity against human MRC5 cells to IC50 for cytotoxicity against human HeLa cells. The class given is toxicity, cell-based. The note with it: for selectivity ratio: MRC5 cells versus HeLa cells, read-out: Ratio IC50.
Series [8] in a line: Drug uptake in human MRC5 cells incubated at 37 degreeC for 2 hrs by flow cytometry analysis. The series is classed as ADME, cell-based. The note with it: mrc5, 2 h. Background: Flow cytometry measures light scatter and fluorescence of single cells or particles in a stream.
Series [9] can be described thus: Drug uptake in human MRC5 cells incubated at 4 degreeC for 30 mins by flow cytometry analysis. The class given is ADME, cell-based. The note with it: mrc5, 0.5 h.
The nature of series [10]: Drug uptake in human MRC5 cells assessed as drug internalization at 5 uM incubated for 120 mins by DAPI staining based confocal fluorescence microscopic analysis. The class given is ADME, cell-based. The note with it: mrc5, 2 h.
Series [11] can be described thus: Drug uptake in Trypanosoma brucei incubated at 4 degreeC for 16 hrs by flow cytometry analysis. The series is classed as ADME.
Series [12] in a line: Drug uptake in human MRC5 cells assessed as drug internalization at 5 uM incubated for 30 mins by DAPI staining based confocal fluorescence microscopic analysis. The series is classed as ADME, cell-based. The note with it: mrc5, 0.5 h.
Series [13] can be described thus: Drug uptake in Trypanosoma brucei assessed as drug internalization at 5 uM incubated for 6 hrs by DAPI staining based confocal fluorescence microscopic analysis. The series is classed as ADME.
Series [14] is described as follows: Selectivity index, ratio of IC50 for cytotoxicity against human MRC5 cells to IC50 for antileishmanial activity against Leishmania major (MHOM/IL/80/Friedlin) promastigotes. The class given is toxicity, cell-based. The note with it: read-out: Ratio IC50.
Series [15] deals with Quadruplex DNA. Put plainly: Binding affinity to Trypanosoma brucei G-quadruplex telomeric DNA FEBR1T (5'-duplex GGG TTAGGG TTAGGG TTAGGG-3') assessed as stabilization by measuring change in melting temperature at 10 uM in potassium buffer by FRET melting assay. The series is classed as nucleic-acid assay.
Series [16] in a line: Drug internalization in nuclei of Trypanosoma brucei at 5 uM incubated for 6 hrs by DAPI staining based confocal fluorescence microscopic analysis. The series is classed as ADME.
Series [17] in a line: Drug uptake in human MRC5 cells incubated at 37 degreeC for 30 mins by flow cytometry analysis. The series is classed as ADME, cell-based. The note with it: mrc5, 0.5 h.
Series [18] is described as follows: Drug uptake in human MRC5 cells incubated at 4 degreeC for 2 hrs by flow cytometry analysis. The series is classed as ADME, cell-based. The note with it: mrc5, 2 h.
Series [19] is described as follows: Drug uptake in Trypanosoma brucei incubated at 37 degreeC for 2 hrs by flow cytometry analysis. The series is classed as ADME.
Series [20] can be described thus: Drug internalization in nuclei of human MRC5 cells at 5 uM incubated for 2 hrs by DAPI staining based confocal fluorescence microscopic analysis. The series is classed as ADME, cell-based. The note with it: mrc5, 2 h.
Series [21] is described as follows: Drug uptake in Trypanosoma brucei assessed as drug internalization at 5 uM incubated for 2 hrs by DAPI staining based confocal fluorescence microscopic analysis. The class given is ADME.
Series [22] in a line: Drug uptake in Trypanosoma brucei incubated at 37 degreeC for 16 hrs by flow cytometry analysis. The class given is ADME.
Series [23] is described as follows: Drug uptake in Trypanosoma brucei incubated at 4 degreeC for 2 hrs by flow cytometry analysis. The series is classed as ADME.
Series [24] can be described thus: Binding affinity to hairpin duplex DNA F10T (unknown origin) assessed as stabilization by measuring change in melting temperature at 1 uM in potassium buffer by FRET melting assay.
Series [25] deals with Quadruplex DNA. Put plainly: Binding affinity to G-quadruplex telomeric DNA F21T (5'-duplex GGG TTAGGG TTAGGG TTAGGG-3') (unknown origin) assessed as stabilization by measuring change in melting temperature at 1 uM in potassium buffer by FRET melting assay. The class given is nucleic-acid assay.
Series [26] concerns Quadruplex DNA. The series can be described thus: Binding affinity to G-quadruplex telomeric DNA F21T (5'-duplex GGG TTAGGG TTAGGG TTAGGG-3') (unknown origin) assessed as stabilization by measuring change in melting temperature at 1 uM in sodium buffer by FRET melting assay. The series is classed as nucleic-acid assay.
The test system of series [27] is Quadruplex DNA. The series can be described thus: Binding affinity to G-quadruplex telomeric DNA FMycT (5'-duplex GGG TTAGGG TTAGGG TTAGGG-3') (unknown origin) assessed as stabilization by measuring change in melting temperature at 1 uM in potassium buffer by FRET melting assay. The series is classed as nucleic-acid assay.
For series [28], the system named is Quadruplex DNA. Put plainly: Binding affinity to Trypanosoma brucei G-quadruplex telomeric DNA FEBR1T (5'-duplex GGG TTAGGG TTAGGG TTAGGG-3') assessed as stabilization by measuring change in melting temperature at 1 uM in potassium buffer by FRET melting assay. The class given is nucleic-acid assay.
Setting [29] is: Leishmania major, MHOM/IL/80/Friedlin, 72 h.

Where “and” joins values, the source holds several entries; their conditions need not be identical. Identical values can stand only once.

On to `CN1CCN(c2ccccc2N2C(=O)c3ccc4c5c(ccc(c35)C2=O)C(=O)N(c2ccccc2N2CCN(C)CC2)C4=O)CC1`, for which the IC50 – broadly, the midpoint of a concentration-inhibition curve – in the series with Leishmania major was 790 nM and 3110 nM; with Trypanosoma brucei it was 48 nM and 110 nM; with HeLa (Homo sapiens, HeLa, 72 h), 1210 nM; in the series on HeLa (hela), 740 nM; in the series with MRC5, 1230 nM. Further, the ΔTm (usually the shift of the melting midpoint relative to a reference) with Quadruplex DNA [1] is 1.6 °C and 1.9 °C; in the series with Quadruplex DNA [3], 0.9 °C and 2.3 °C; with Quadruplex DNA [4], 1.4 °C and 1.9 °C; in [6] it was 0.1 °C and -0.3 °C. For the same compound, the “Ratio IC50” value in series [2] was 30.69 and 10.53; in series [7] it was 1.66. Further, the IC50 at 72 h in [5] is 1500 nM. Moreover, the selectivity ratio in series [7] turned out to be 1.23.

`CN1CCN(c2ccc(N3C(=O)c4ccc5c6c(ccc(c46)C3=O)C(=O)N(c3ccc(N4CCN(C)CC4)cc3)C5=O)cc2)CC1`: the Drug uptake entry in series [8], in [9], in series [10], in series [11], in series [12] and in series [13] was “Active” in each case. Moreover, the Drug uptake result in series [16], in series [17], in [18], in [19], in series [20] and in series [21] was “Active” in each case. For the same compound, the Drug uptake entry in [22] and in series [23] was “Active” each time. Also, the IC50 in the series on Leishmania major (setting [29]) came out at 930 nM; in the series on Trypanosoma brucei (Trypanosoma brucei, 72 h), 750 nM; with HeLa (Homo sapiens, HeLa, 72 h) it was 2290 nM. The ΔTm with Quadruplex DNA [1] is 1.4 °C; in the series with Quadruplex DNA [3], 1.8 °C; with Quadruplex DNA [4], 1.3 °C; in the series on Quadruplex DNA [15], 0.9 °C; in series [6] it was -0.1 °C. The figures for the selectivity ratio in series [2], in series [14] and in series [7] were 29.5, 23.8 and 9.72, respectively. Also, the IC50 at 72 h in series [5] amounted to 22300 nM.

Take `C[n+]1ccc(-c2c3nc(c(-c4cc[n+](C)cc4)c4ccc([nH]4)c(-c4cc[n+](C)cc4)c4ccc([nH]4)c(-c4cc[n+](C)cc4)c4nc2C=C4)C=C3)cc1`: the ΔTm in series [24] came to 7.2 °C; in the series on Quadruplex DNA [25] it was 28.1 °C; with Quadruplex DNA [26] it was 34.2 °C; with Quadruplex DNA [27], 27.5 °C; in the series on Quadruplex DNA [28], 28 °C.

`CC(CCN1C(=O)c2ccc3c4c(ccc(c24)C1=O)C(=O)N(CCC(C)N1CCN(C)CC1)C3=O)N1CCN(C)CC1` (stereo unspecified): the IC50 in the series on Leishmania major (setting [29]) is 240 nM; in the series with Trypanosoma brucei (Trypanosoma brucei, 72 h), 130 nM; with HeLa (Homo sapiens, HeLa, 72 h), 350 nM. Besides, the ΔTm in the series with Quadruplex DNA [1] was 28.5 °C; in the series on Quadruplex DNA [3], 22 °C; with Quadruplex DNA [4] it was 18.8 °C; with Quadruplex DNA [15], 24.8 °C; in [6], 4.5 °C. Moreover, the selectivity ratio in [2] was determined as 9.5; in [14], 5.17; in series [7] it was 3.54. Further, the IC50 at 72 h in series [5] came to 1240 nM.

Source of the values: ChEMBL document CHEMBL5108010, “Structure-activity relationship studies on divalent naphthalene diimide G quadruplex ligands with anticancer and antiparasitic activity” (Bioorg Med Chem, 2022).
